# Columns and labels:
# Format in all cases: in vivo, human
# [1] = tested on: patients with mild to moderate aortic stenosis; assay: Lab measures (chemistry panel) in ramipril pilot study
# Method: (§1) Clinical Protocol: This pilot study enrolled 8 patients with mild to moderate aortic stenosis, normal left ventricular (LV) function and no history of coronary artery disease. […] Patients then were placed on the ACE inhibitor ramipril, 2.5 mg qd for 2 weeks followed by up-titration at 2 week intervals to 2.5 mg bid, 5 mg bid and 7.5 mg bid. The study lasted 8 weeks. Vital signs were repeated weekly, chemistry panels every 2 weeks and echocardiograms every 4 weeks.
# [2] = tested on: patients with mild to moderate aortic stenosis; assay: Clinical follow up (vital signs, symptoms) in ramipril pilot study; settings: for HR sitting / HR supine: in bpm (unit assumed); for DBP supine / SBP supine: in mmHg
# Method: as §1
# [3] = tested on: patients with mild to moderate aortic stenosis; assay: Echo measures (echocardiogram) in ramipril pilot study
# Method: as §1
# [4] = Week 1, ramipril dose 2.5 × 1, n = 8, mean±SD
# [5] = Week 1, ramipril dose 2.5 × 1, n = 8
# [6] = Week 2, ramipril dose 2.5 × 1, n = 8, mean±SD
# [7] = Week 2, ramipril dose 2.5 × 1, n = 8
# [8] = Week 3, ramipril dose 2.5 × 2, n = 8, mean±SD
# [9] = Week 3, ramipril dose 2.5 × 2, n = 8
# [10] = Week 4, ramipril dose 2.5 × 2, n = 8, mean±SD
# [11] = Week 4, ramipril dose 2.5 × 2, n = 8
# [12] = Week 5, ramipril dose 5 × 2, n = 8, mean±SD
# [13] = Week 5, ramipril dose 5 × 2, n = 8
# [14] = Week 6, ramipril dose 5 × 2, n = 8, mean±SD
# [15] = Week 6, ramipril dose 5 × 2, n = 8
# [16] = Week 7, ramipril dose 7.5 × 2, n = 8, mean±SD
# [17] = Week 7, ramipril dose 7.5 × 2, n = 8
# [18] = Week 8 (final), ramipril dose 7.5 × 2, n = 8, mean±SD
# [19] = Week 8 (final), ramipril dose 7.5 × 2, n = 8, mean±SD, listed as Ramipril
# [20] = Week 8, ramipril dose 7.5 × 2, n = 8
# [21] = count among n = 8, Week 1, ramipril dose 2.5 × 1
# [22] = count among n = 8, Week 2, ramipril dose 2.5 × 1
# [23] = count among n = 8, Week 3, ramipril dose 2.5 × 2
# [24] = count among n = 8, Week 4, ramipril dose 2.5 × 2
# [25] = count among n = 8, Week 5, ramipril dose 5 × 2
# [26] = count among n = 8, Week 6, ramipril dose 5 × 2
# [27] = count among n = 8, Week 7, ramipril dose 7.5 × 2
# [28] = count among n = 8, Week 8, ramipril dose 7.5 × 2
structure (smiles),measurement,setting,value
CCOC(=O)[C@H](CCc1ccccc1)N[C@@H](C)C(=O)N1[C@H](C(=O)O)C[C@@H]2CCC[C@@H]21 [ramipril],Creatinine,"[1]; Week 1, n = 8, mean±SD",1.1 ± 0.3 mg/dL
same,Glucose,"[1]; Week 1, n = 8, mean±SD",97 ± 29 mg/dL
same,Potassium,"[1]; Week 1, n = 8, mean±SD",4.3 ± 0.3 mEq/L
same,Creatinine,"[1]; Week 3, n = 8, mean±SD",1.2 ± 0.4 mg/dL
same,Glucose,"[1]; Week 3, n = 8, mean±SD",96 ± 15 mg/dL
same,Potassium,"[1]; Week 3, n = 8, mean±SD",4.4 ± 0.4 mEq/L
same,Creatinine,"[1]; Week 5, n = 8, mean±SD",1.1 ± 0.3 mg/dL
same,Glucose,"[1]; Week 5, n = 8, mean±SD",91 ± 18 mg/dL
same,Potassium,"[1]; Week 5, n = 8, mean±SD",4.3 ± 0.5 mEq/L
same,Creatinine,"[1]; Week 7, n = 8, mean±SD",1.1 ± 0.3 mg/dL
same,Glucose,"[1]; Week 7, n = 8, mean±SD",91 ± 19 mg/dL
same,Potassium,"[1]; Week 7, n = 8, mean±SD",4.4 ± 0.5 mEq/L
same,Creatinine,"[1]; final measurement, mean±SD",1.1 ± 0.3 mg/dL
same,Glucose,"[1]; final measurement, mean±SD",91 ± 18 mg/dL
same,Potassium,"[1]; final measurement, mean±SD",4.3 ± 0.5 mEq/L
same,DBP sitting,[2]; [4],67 ± 9 mmHg
same,SBP sitting,[2]; [4],109 ± 17 mmHg
same,HR sitting,[2]; [5],60 ± 9
same,HR supine,[2]; [5],58 ± 5
same,DBP supine,[2]; [5],62 ± 5
same,SBP supine,[2]; [5],106 ± 15
same,DBP sitting,[2]; [6],65 ± 8 mmHg
same,SBP sitting,[2]; [6],113 ± 16 mmHg
same,HR sitting,[2]; [7],61 ± 8
same,HR supine,[2]; [7],63 ± 6
same,DBP supine,[2]; [7],60 ± 9
same,SBP supine,[2]; [7],110 ± 12
same,DBP sitting,[2]; [8],65 ± 8 mmHg
same,SBP sitting,[2]; [8],111 ± 15 mmHg
same,HR sitting,[2]; [9],62 ± 8
same,HR supine,[2]; [9],62 ± 11
same,DBP supine,[2]; [9],60 ± 7
same,SBP supine,[2]; [9],107 ± 14
same,DBP sitting,[2]; [10],64 ± 5 mmHg
same,SBP sitting,[2]; [10],112 ± 16 mmHg
same,HR sitting,[2]; [11],65 ± 7
same,HR supine,[2]; [11],64 ± 7
same,DBP supine,[2]; [11],64 ± 8
same,SBP supine,[2]; [11],111 ± 14
same,DBP sitting,[2]; [12],67 ± 9 mmHg
same,SBP sitting,[2]; [12],116 ± 17 mmHg
same,HR sitting,[2]; [13],62 ± 6
same,HR supine,[2]; [13],61 ± 7
same,DBP supine,[2]; [13],69 ± 10
same,SBP supine,[2]; [13],116 ± 17
same,DBP sitting,[2]; [14],65 ± 4 mmHg
same,SBP sitting,[2]; [14],118 ± 20 mmHg
same,HR sitting,[2]; [15],61 ± 8
same,HR supine,[2]; [15],61 ± 5
same,DBP supine,[2]; [15],65 ± 6
same,SBP supine,[2]; [15],114 ± 20
same,DBP sitting,[2]; [16],70 ± 10 mmHg
same,SBP sitting,[2]; [16],121 ± 13 mmHg
same,HR sitting,[2]; [17],61 ± 4
same,HR supine,[2]; [17],61 ± 6
same,DBP supine,[2]; [17],72 ± 6
same,SBP supine,[2]; [17],121 ± 13
same,DBP sitting,[2]; [18],65±10 mmHg
same,SBP sitting,[2]; [18],114±14 mmHg
same,DBP sitting,[2]; [19],65 ± 10 mmHg
same,SBP sitting,[2]; [19],114 ± 14 mmHg
same,HR sitting,"[2]; Week 8 (final), ramipril dose 7.5 × 2, n = 8",62±3
same,HR sitting,"[2]; Week 8 (final), ramipril dose 7.5 × 2, n = 8, listed as Ramipril",62 ± 3
same,HR supine,[2]; [20],62 ± 3
same,DBP supine,[2]; [20],63 ± 6
same,SBP supine,[2]; [20],120 ± 15
same,Cough,[2]; [21],0
same,Ghest pain,[2]; [21],0
same,Hyper-sensitivity,[2]; [21],0
same,Light-headedness,[2]; [21],0
same,Cough,[2]; [22],0
same,Ghest pain,[2]; [22],0
same,Hyper-sensitivity,[2]; [22],0
same,Light-headedness,[2]; [22],0
same,Cough,[2]; [23],0
same,Ghest pain,[2]; [23],0
same,Hyper-sensitivity,[2]; [23],0
same,Light-headedness,[2]; [23],0
same,Cough,[2]; [24],0
same,Ghest pain,[2]; [24],0
same,Hyper-sensitivity,[2]; [24],0
same,Light-headedness,[2]; [24],0
same,Cough,[2]; [25],0
same,Ghest pain,[2]; [25],0
same,Hyper-sensitivity,[2]; [25],0
same,Light-headedness,[2]; [25],0
same,Cough,[2]; [26],2
same,Ghest pain,[2]; [26],1
same,Hyper-sensitivity,[2]; [26],0
same,Light-headedness,[2]; [26],0
same,Cough,[2]; [27],0
same,Ghest pain,[2]; [27],0
same,Hyper-sensitivity,[2]; [27],0
same,Light-headedness,[2]; [27],0
same,Cough,[2]; [28],1
same,Ghest pain,[2]; [28],1
same,Hyper-sensitivity,[2]; [28],0
same,Light-headedness,[2]; [28],1
same,AS-Jet (aortic stenosis jet velocity),"[3]; Week4, n = 8, mean±SD",2.8 ± 0.2 m/sec
same,Cardiac output,"[3]; Week4, n = 8, mean±SD",5.9 ± 1.5 L/min
same,LVEF,"[3]; Week4, n = 8, mean±SD",73 ± 4%
same,LVOT-velocity (left ventricular outflow tract velocity),"[3]; Week4, n = 8, mean±SD",1.1 ± 0.1 m/sec
same,AS-Jet (aortic stenosis jet velocity),"[3]; Week8 (final), n = 8, mean±SD",2.8±0.3 m/sec
same,Cardiac output,"[3]; Week8 (final), n = 8, mean±SD",5.7 ± 1.4 L/min
same,LVEF,"[3]; Week8 (final), n = 8, mean±SD",71±7%
same,LVOT-velocity (left ventricular outflow tract velocity),"[3]; Week8 (final), n = 8, mean±SD",1.0±0.2 m/sec

# From patent publication US20040057955A1, “Methods of inhibition of stenosis and/or sclerosis of the aortic valve” (priority 2003, published 2004)
